Measurements taken from patent US20170232083A1, “METHODS OF DIAGNOSIS AND TREATMENT OF CELIAC DISEASE IN CHILDREN” (priority 2014, published 2017).

Test system: PBMC (polyclonal gluten-specific T cells) of paediatric and adult CD patients
Assay: IFN-γ ELISpot of PBMC after 3 day oral wheat challenge (SFU, % of maximal peptide response, dominance scores, EC50; Examples 5-6)
Format: cell-based, human
Settings: for Cross-reactive T cell response: following wheat challenge; for IFN-γ ELISpot response: after oral wheat challenge
[1] = subject I (3-5yrs/6-10yrs part)
[2] = subject J (3-5yrs/6-10yrs part)
[3] = subject K (3-5yrs/6-10yrs part)
[4] = subject V (3-5yrs/6-10yrs part)
[5] = subject W (3-5yrs/6-10yrs part)
[6] = subject Y (3-5yrs/6-10yrs part)
[7] = subject five (3-5yrs/6-10yrs part)
[8] = subject seven (3-5yrs/6-10yrs part)
[9] = subject six (3-5yrs/6-10yrs part)
[10] = subject ten (3-5yrs/6-10yrs part)
[11] = subject two (3-5yrs/6-10yrs part)
[12] = patient A, 11-17 yrs, cut-off 10 SFU
[13] = patient E, H, 11-17 yrs, cut-off 10 SFU
[14] = patient F, 11-17 yrs, cut-off 10 SFU
[15] = patient G, 11-17 yrs, cut-off 10 SFU
[16] = patient H (HLA-DQ2.5 homozygote), 3-5yrs, cut-off 10 SFU
[17] = patient H, 11-17 yrs, cut-off 10 SFU
[18] = patient ID not given, 11-17 yrs, cut-off 10 SFU
[19] = patient N, 3-5yrs, cut-off 10 SFU
[20] = patient P, 11-17 yrs, cut-off 21.6 SFU
[21] = patient Q, 11-17 yrs, cut-off 10 SFU
[22] = patient U, H, 11-17 yrs, cut-off 10 SFU
[23] = patient V, 6-10 yrs, cut-off 10 SFU
[24] = patient Y, 6-10 yrs, cut-off 10 SFU
[25] = patient eleven, 6-10 yrs, cut-off 10 SFU
[26] = patient four, 3-5yrs, cut-off 10 SFU
[27] = patient seven, 6-10 yrs, cut-off 10.5 SFU
[28] = patient ten, 3-5yrs, cut-off 10 SFU
[29] = patient three, 6-10 yrs, cut-off 10.5 SFU
[30] = patient twelve, 11-17 yrs, cut-off 10 SFU
[31] = patient two, 3-5yrs, cut-off 10 SFU
[32] = patient two, max peptide 60 SFU

Sequence: QPFPQPEQPFRQQ
- Cross-reactive T cell response (subject A, 11-17yrs): 1 SFU
- Significant response as a percentage of maximal peptide SFU (subject D, 11-17yrs): ′′′ (41-70% = ′′′)
- Cross-reactive T cell response (subject D, 11-17yrs): 15 SFU
- Significant response as a percentage of maximal peptide SFU (subject E, 11-17yrs): ′ (11-20% = ′)
- Cross-reactive T cell response (subject E, 11-17yrs): 37 SFU
- Significant response as a percentage of maximal peptide SFU (subject F, 11-17yrs): ′ (11-20% = ′)
- Cross-reactive T cell response (subject F, 11-17yrs): 21 SFU
- Cross-reactive T cell response (subject G, 11-17yrs): 3 SFU
- Cross-reactive T cell response (subject H): 0 SFU
- Cross-reactive T cell response [1]: 4 SFU
- Significant response as a percentage of maximal peptide SFU (subject J): (6-10% - ^)
- Cross-reactive T cell response [2]: 15 SFU
- Significant response as a percentage of maximal peptide SFU (subject K): ′′ (21-40% = ′′)
- Cross-reactive T cell response [3]: 21 SFU
- Cross-reactive T cell response (subject P, 11-17yrs): 16 SFU
- Significant response as a percentage of maximal peptide SFU (subject Q, 11-17yrs): ′′′ (41-70% = ′′′)
- Cross-reactive T cell response (subject Q, 11-17yrs): 44 SFU
- Significant response as a percentage of maximal peptide SFU (subject T, 11-17yrs): ′′′ (41-70% = ′′′)
- Cross-reactive T cell response (subject T, 11-17yrs): 58 SFU
- Significant response as a percentage of maximal peptide SFU (subject U, 11-17yrs): ′′ (21-40% = ′′)
- Cross-reactive T cell response (subject U, 11-17yrs): 21 SFU
- Significant response as a percentage of maximal peptide SFU (subject V): ′′′ (41-70% = ′′′)
- Cross-reactive T cell response [4]: 20 SFU
- Cross-reactive T cell response [5]: 8 SFU
- Cross-reactive T cell response [6]: 8 SFU
- Significant response as a percentage of maximal peptide SFU (subject five): + (>70% = +)
- Cross-reactive T cell response [7]: 37 SFU
- Cross-reactive T cell response (subject nine, 11-17yrs): 0 SFU
- Cross-reactive T cell response [8]: 6 SFU
- Cross-reactive T cell response [9]: 5 SFU
- Cross-reactive T cell response [10]: 6 SFU
- Significant response as a percentage of maximal peptide SFU (subject two): ′′ (21-40% = ′′)
- Cross-reactive T cell response [11]: 24 SFU

Sequence: TIPEQPEQPFPLQ
- IFN-γ ELISpot response [12]: 0 SFU
- IFN-γ ELISpot response [13]: 224 SFU
- Significant response as percentage of maximal peptide SFU (patient E, max peptide 224 SFU): + (>70% = +)
- IFN-γ ELISpot response [14]: 14 SFU
- Significant response as percentage of maximal peptide SFU (patient F, max peptide 178 SFU): (6-10% = ^)
- IFN-γ ELISpot response [15]: 2 SFU
- IFN-γ ELISpot response [16]: 2 SFU
- IFN-γ ELISpot response [17]: 4 SFU
- IFN-γ ELISpot response [18]: 6 SFU
- Significant response as percentage of maximal peptide SFU (patient J, max peptide 196 SFU): (6-10% = ^)
- IFN-γ ELISpot response [19]: 3 SFU
- IFN-γ ELISpot response [20]: 7 SFU
- IFN-γ ELISpot response [21]: 8 SFU
- IFN-γ ELISpot response [22]: 5 SFU
- IFN-γ ELISpot response [23]: 0 SFU
- IFN-γ ELISpot response [24]: 2 SFU
- IFN-γ ELISpot response [25]: 3 SFU
- IFN-γ ELISpot response [26]: 3 SFU
- IFN-γ ELISpot response [27]: 1 SFU
- IFN-γ ELISpot response [28]: 5 SFU
- IFN-γ ELISpot response [29]: 18 SFU
- IFN-γ ELISpot response [30]: 1 SFU
- IFN-γ ELISpot response [31]: 11 SFU
- Significant response as percentage of maximal peptide SFU [32]: ′ (11-20% = ′)

Sequence: PFPLQPEQPVPEQPQ
- Cross-reactive T cell response (subject A, 11-17yrs): 2 SFU
- Cross-reactive T cell response (subject D, 11-17yrs): 9 SFU
- Cross-reactive T cell response (subject E, 11-17yrs): 3 SFU
- Significant response as a percentage of maximal peptide SFU (subject F, 11-17yrs): ′ (11-20% = ′)
- Cross-reactive T cell response (subject F, 11-17yrs): 20 SFU
- Cross-reactive T cell response (subject G, 11-17yrs): 0 SFU
- Cross-reactive T cell response (subject H): 3 SFU
- Cross-reactive T cell response [1]: 1 SFU
- Cross-reactive T cell response [2]: 3 SFU
- Cross-reactive T cell response [3]: 5 SFU
- Cross-reactive T cell response (subject P, 11-17yrs): 6 SFU
- Cross-reactive T cell response (subject Q, 11-17yrs): 5 SFU
- Significant response as a percentage of maximal peptide SFU (subject T, 11-17yrs): ′′ (21-40% = ′′)
- Cross-reactive T cell response (subject T, 11-17yrs): 21 SFU
- Significant response as a percentage of maximal peptide SFU (subject U, 11-17yrs): ′ (11-20% = ′)
- Cross-reactive T cell response (subject U, 11-17yrs): 10 SFU
- Cross-reactive T cell response [4]: 7 SFU
- Cross-reactive T cell response [5]: 11 SFU
- Cross-reactive T cell response [6]: 2 SFU
- Cross-reactive T cell response [7]: 1 SFU
- Cross-reactive T cell response (subject nine, 11-17yrs): 1 SFU
- Cross-reactive T cell response [8]: 1 SFU
- Cross-reactive T cell response [9]: 3 SFU
- Significant response as a percentage of maximal peptide SFU (subject ten): + (>70% = +)
- Cross-reactive T cell response [10]: 11 SFU
- Cross-reactive T cell response [11]: 5 SFU

Sequence: LQPFPQPQLPYPQP
- IFN-γ ELISpot response [12]: 1 SFU
- Significant response as percentage of maximal peptide SFU (patient D, max peptide 30.5 SFU): ′′ (21-40% = ′′)
- IFN-γ ELISpot response [13]: 86 SFU
- Significant response as percentage of maximal peptide SFU (patient E, max peptide 224 SFU): ′′ (21-40% = ′′)
- IFN-γ ELISpot response [14]: 64 SFU
- Significant response as percentage of maximal peptide SFU (patient F, max peptide 178 SFU): ′′ (21-40% = ′′)
- IFN-γ ELISpot response [15]: 3 SFU
- IFN-γ ELISpot response [16]: 22 SFU
- IFN-γ ELISpot response [17]: 14 SFU
- Significant response as percentage of maximal peptide SFU (patient H, max peptide 17 SFU): + (>70% = +)
- IFN-γ ELISpot response [18]: 51 SFU
- Significant response as percentage of maximal peptide SFU (patient ID not given, max peptide 95 SFU): ′′′ (41-70% = ′′′)
- Significant response as percentage of maximal peptide SFU (patient II, max peptide 15 SFU): + (>70% = +)
- Significant response as percentage of maximal peptide SFU (patient J, max peptide 196 SFU): ′′′ (41-70% = ′′′)
- Significant response as percentage of maximal peptide SFU (patient K, max peptide 53 SFU): ′ (11-20% = ′)
- Significant response as percentage of maximal peptide SFU (patient M, max peptide 48 SFU): ′′′ (41-70% = ′′′)
- IFN-γ ELISpot response [19]: 4 SFU
- IFN-γ ELISpot response [20]: 25 SFU
- Significant response as percentage of maximal peptide SFU (patient P, max peptide 64 SFU): ′′ (21-40% = ′′)
- IFN-γ ELISpot response [21]: 38 SFU
- Significant response as percentage of maximal peptide SFU (patient Q, max peptide 97 SFU): ′′ (21-40% = ′′)
- IFN-γ ELISpot response [22]: 35 SFU
- IFN-γ ELISpot response [23]: 10 SFU
- Significant response as percentage of maximal peptide SFU (patient V, max peptide 35 SFU): ′′ (21-40% = ′′)
- IFN-γ ELISpot response [24]: 14 SFU
- Significant response as percentage of maximal peptide SFU (patient Y, max peptide 16 SFU): + (>70% = +)
- IFN-γ ELISpot response [25]: 29 SFU
- Significant response as percentage of maximal peptide SFU (patient eleven, max peptide 57 SFU): ′′′ (41-70% = ′′′)
- Significant response as percentage of maximal peptide SFU (patient five, max peptide 48 SFU): ′′′ (41-70% = ′′′)
- IFN-γ ELISpot response [26]: 17 SFU
- Significant response as percentage of maximal peptide SFU (patient four, max peptide 44 SFU): ′′ (21-40% = ′′)
- IFN-γ ELISpot response [27]: 5 SFU
- IFN-γ ELISpot response [28]: 5 SFU
- IFN-γ ELISpot response [29]: 93 SFU
- IFN-γ ELISpot response [30]: 10 SFU
- IFN-γ ELISpot response [31]: 21 SFU
- Significant response as percentage of maximal peptide SFU [32]: ′′ (21-40% = ′′)
